Data on 2 compounds can be found in PubChem BioAssay (NCI).

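Step 1: Grow cells in 96-well plates. Step 2: Expose to compound for 48 hours at 5 concentrations. Step 3: Interpolate endpoints linearly; if unreached, use highest concentration. At the TGI there is no net growth.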 Where only a bound is given, the exact number is not on record here.

Common to all, as to assay: NCI anticancer screen, dose series, 48 h
Experiment [1] concerns SNB-78 CNS.
In experiment [2] the test system is XF 498 CNS.
Experiment [3] concerns LXFL 529 NSCLC.
Experiment [4] relates to DMS 273 small cell lung.
Experiment [5] concerns M19-MEL melanoma.
For experiment [6], the system named is DMS 114 small cell lung.
In experiment [7] the test system is DLD-1 colon.

Regarding `O=C1C[C@@H]2[C@@H](c3ccccc3)[C@@H]3C(=O)c4ccccc4NC(=O)[C@H]3[C@]2(O)c2ccccc2N1`, the TGI in experiment [1], in experiment [2], in experiment [3], in experiment [4], in experiment [5] and in experiment [6] was > 100 µM throughout.

Take `CC(C)=CCC/C(C)=C/Cc1c(O)c(C)cc2c1[nH]c1cc(O)ccc12`: the TGI in experiment [7], in experiment [1], in experiment [3], in experiment [4], in experiment [5] and in experiment [6] was > 25 µM each time.
